PubChem BioAssay AID720495 (Broad Institute, 2013)
Results filed as inconclusive are left out. Active and inactive are the calls of the source. How the calls were made is not given here.

Each molecule was assayed against Protein AF-9 (Homo sapiens) (UniProt P42568) (assay: AF9 binding to AF4 blockers, potency – biochemical, cherry-picked samples, plate reader, dose response (AID 720495)). Settings: biochemical protein-protein interaction assay.
Chain of Protein AF-9 (Homo sapiens) (P42568 whole entry, looked up): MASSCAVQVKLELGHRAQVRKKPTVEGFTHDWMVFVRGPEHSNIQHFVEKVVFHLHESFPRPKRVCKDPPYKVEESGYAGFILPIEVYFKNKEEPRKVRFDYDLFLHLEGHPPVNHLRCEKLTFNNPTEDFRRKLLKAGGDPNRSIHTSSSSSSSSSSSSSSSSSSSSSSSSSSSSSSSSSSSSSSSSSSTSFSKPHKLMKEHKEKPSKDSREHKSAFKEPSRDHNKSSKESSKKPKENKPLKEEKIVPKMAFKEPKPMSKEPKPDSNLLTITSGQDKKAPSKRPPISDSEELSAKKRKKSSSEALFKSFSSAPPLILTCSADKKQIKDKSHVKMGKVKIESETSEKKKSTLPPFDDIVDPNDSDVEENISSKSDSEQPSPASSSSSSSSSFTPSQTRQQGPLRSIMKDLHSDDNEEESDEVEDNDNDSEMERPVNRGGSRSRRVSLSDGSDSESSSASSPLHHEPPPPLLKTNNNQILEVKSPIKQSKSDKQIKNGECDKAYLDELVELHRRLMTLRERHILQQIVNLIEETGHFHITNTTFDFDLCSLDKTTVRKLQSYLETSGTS

Compound | AC50 [µM]
C[C@@H]1CN([C@@H](C)CO)C(=O)c2cc(N(C)C)ccc2O[C@@H]1CN(C)Cc1ccc(-c2ccccc2)cc1 | 8.93
CCN(CC)c1ccc(C(=C2C=CC(=[N+](CC)CC)C=C2)c2ccc(N(CC)CC)cc2)cc1 | 0.153
Cc1ccc2c(c1)C1CN(C)CCC1N2Sc1ccccc1[N+](=O)[O-] (centres undefined) | 5.01
CN(C)CCCNC(=O)c1ccc(-c2cc(O)c3ncccc3c2)cc1 | 0.693
C#CCOCCOCCOCCNc1nc(N2CCN(C(=O)[C@H](CCCCN)n3cc([C@@H](N)C(C)CC)nn3)CC2)nc(N2CCN(C(=O)[C@H](CCCCN)n3cc([C@@H](N)CC(C)C)nn3)CC2)n1 (some centres undefined) | 0.702
COc1cc(OC)c2c(c1C(CCN1CCOCC1)c1ccc(N(C)C)cc1)OC(=O)CC2c1ccc(N(C)C)cc1 (centres undefined) | 10.7
COC1=C(Nc2ccc(O)cc2)C(=O)c2ccccc2C1=O | 9.8
COC(=O)c1ccc2nc(C)cc(Nc3ccc(N(C)C)cc3)c2c1 | 4.41
COc1cc(NCCCCCCN)c2ncccc2c1OC | 2.62
CCN1CCN(c2ccc(N)cc2)CC1 | 1.54
Cn1c(=O)cc2c3c(c(N4CCCCC4)ccc31)C(=O)c1ccccc1-2 | 8.32
CCC(=O)N1CC2(CCN(Cc3ccc(Cl)cc3)CC2)c2c([nH]c3cc(OC)ccc23)[C@H]1CO | 10.4
CN(C)CCCNC(=S)NCC(c1ccc(Cl)cc1Cl)c1c[nH]c2ccccc12 (centres undefined) | 10.7
CCOc1ccc(NCc2cccn2-c2nnc(N3CCC(C(=O)NCCCN4CCCCC4C)CC3)s2)cc1 (centres undefined) | 4.96
C[C@@H]1NC(=O)N[C@@H]1CCCCCC(=O)O | < 0.08
CCN(CC)c1ccc(C(=C2C=CC(=[N+](CC)CC)C=C2)c2ccc(S(=O)(=O)O)cc2S(=O)(=O)[O-])cc1 | 4.29
CCCN(CC1CC1)c1cc2c(c3c1ccn3C)C1CCC2C1 (centres undefined) | 7.79
COc1ccc(NCc2nn(CC(=O)c3ccc(Br)cc3)c3[n+]2CCCCC3)cc1 | 8.83
CN1CCN(C2CCN(Cc3ccc(O)c4ncccc34)CC2)CC1 | 2.77
COc1ccc2[nH]c3c(C)c4cc[n+](C)cc4c(C)c3c2c1 | 3.07
CN(C)c1ccc(Nc2nc(N)c3ccccc3n2)cc1 | 7.47
CSc1ccc2c(c1)N(CCC1CCCCN1C)c1ccccc1S2 (centres undefined) | 6.31
Cc1cccc(NC2=C(NCCO)C(=O)c3ccccc3C2=O)c1 | 3.55

Compound | AC50 [µM]
CNC[C@H](Cc1ccccc1)NC[C@@H](Cc1cccc2ccccc12)NCCc1ccc(C)cc1 | 10.1
C[C@@H]1CN([C@@H](C)CO)C(=O)c2cc(N(C)C)ccc2O[C@@H](C)CCCCO[C@@H]1CN(C)Cc1ccc(C(F)(F)F)cc1 | 10.5
CN(C)c1ccc(N=Nc2ccccc2Br)cc1 | 10.3
COc1ccc2[nH]c(C)c(CCNCc3cn(C)c4ccccc34)c2c1 | 6.85
O=C(/C(=N/N=C/c1ccc(O)c(O)c1)c1ccccc1)c1ccccc1 | 1.62
COc1cc(C2CC(=O)Oc3c(C(CCN4CCOCC4)c4ccc(N(C)C)cc4)c(OC)cc(OC)c32)cc(OC)c1OC (centres undefined) | 1.55
NCC(O)c1cc(O)c(O)cc1F (centres undefined) | 6.14
Cc1cccc(N=NC(=S)NNc2cccc(C)c2)c1 | 0.212
CCSc1ccc(-c2cc(NC=O)c3ncc(-c4cccc(C(=O)NCCN(C)C)c4)n3c2)cc1 | 0.798
Brc1ccc(N/N=C(/N=Nc2nn[nH]n2)c2ccccc2)cc1 | 5.84
C[C@H](CO)N1C[C@H](C)[C@@H](CN(C)Cc2ccc(Oc3ccccc3)cc2)Oc2ccc(N(C)C)cc2C1=O | 10.7
Oc1cc(-c2ccncc2)cc2cccnc12 | 3.01
C[n+]1c(-c2ccccc2)c2cc(N)ccc2c2ccc(N)cc21 | 9.5
c1ccc2c(NCCc3c[nH]c4ccccc34)c3ccccc3nc2c1 | 5.9
CC(C)Nc1ccc(Nc2ccnc3cc4ccccc4cc23)cc1 | 2.45
NC(=NCCCCCCN=C(N)/N=C(\N)Nc1ccc(Cl)cc1)/N=C(\N)Nc1ccc(Cl)cc1 | 5.27
O=C1c2ccccc2-c2onc3ccc(N4CCCC4)c1c23 | 5.49
CN1CCN(C(c2ccc(C(F)(F)F)cc2)c2cc(Cl)c3cccnc3c2O)CC1 (centres undefined) | 1.54
CCC[C@@H](CN1CCC[C@H]1CN1C(N)=NC[C@@H]1Cc1ccccc1)N1C[C@@H](Cc2ccccc2)N(CCc2ccc(Cl)c(Cl)c2)C1=N | 5.41
CSC(=S)N/N=C/c1c[nH]c2ccccc12 | 11.5
CC(C)(C)OC(=O)N1CCCN(C(c2ccnc3ccccc23)c2nnnn2-c2ccc3c(c2)OCCO3)CC1 (centres undefined) | 0.312
Oc1cc(Nc2cccnc2)cc2cccnc12 | 6.03

Same assay, conditions: biochemical protein-protein interaction assay, at 10 µM (top of the series)

Compound | activity change, negative = inhibition
Cc1ccc2nc(-c3ccccn3)c(NC3CCCC3)n2c1 | inactive
CCN(CC)c1ccc(N=Cc2ccc([N+](=O)[O-])o2)cc1 | inactive
Oc1cc2c(cc1O)C1c3ccc(O)c(O)c3OCC1(O)C2 (centres undefined) | inactive
CCOc1ccc(Nc2nc(NCC3CCCO3)c3ccccc3n2)cc1 (centres undefined) | inactive
c1ccc(C2=Nc3c(ccc4ccccc34)C(c3ccncc3)=NN2)cc1 | inactive
COc1cc(OC)c2c(-c3ccccc3)cc(=O)oc2c1C(CCN1CCOCC1)c1ccc(N(C)C)cc1 (centres undefined) | inactive
COc1ccccc1N1CCN(/N=C/c2cccc(Cl)c2)CC1 | inactive
CN=c1scc(-c2cccs2)n1/N=C/c1ccccc1O | inactive
Cc1cc(C)c2sc(N(CCCN(C)C)C(=O)c3ccc(S(=O)(=O)N4CCCc5ccccc54)cc3)nc2c1 | inactive
CCN1CCCc2cc(CN(CCN3CCOCC3)C(=S)Nc3cccc(C)c3)ccc21 | inactive
CCN1C(=O)/C(=C\C(=O)c2cccs2)c2cc(Br)ccc21 | inactive
Cc1ccc(-c2cc(-c3ccc(C)cc3)[n+](-c3ccc(C(=O)[O-])cc3)c(-c3ccc(C)cc3)c2)cc1 | inactive
CN(C)c1ccc(NC(=S)NC23CC4CC(CC(C4)C2)C3)cc1 | inactive
Fc1ccc(-[n+]2nc(Nc3ccccc3)sc2-c2c(Cl)cccc2Cl)cc1 | inactive
CSCCC(c1nnnn1C1CCCCC1)N1CCC(n2c(=O)[nH]c3ccccc32)CC1 (centres undefined) | inactive
Nc1ccc(O)c2c1C(=O)c1ccccc1C2=O | inactive
Cn1c(SCC(=O)N2c3ccccc3Sc3ccc(Cl)cc32)nnc1-c1ccco1 | inactive
COc1ccc(-c2ccc3[nH]c4c(c3c2)CCN2C[C@H]3[C@H](C)ON(C)[C@H]3C[C@@H]42)cc1 | inactive
Oc1ccccc1C=NCCN1CCN(CCN=Cc2ccccc2O)C1c1ccccc1O (centres undefined) | inactive
COc1cc2c(cc1N)-c1ccc(N)cc1C2=O | inactive
COc1cccc(OCC(O)CN2CCC(CN3C(=O)c4cccc5cccc(c45)C3=O)CC2)c1 (centres undefined) | inactive
Cc1cc2c(=Cc3ccc(N(C)C)cc3)c3ccccc3n2[n+]1C | inactive
COC(=O)C1=CC(C(=O)c2cccs2)=NN(c2ccc(OC)cc2)C1C(=O)OC (centres undefined) | inactive
c1ccc2c(c1)nc(Nc1ccc(N3CCCCC3)cc1)c1nncn12 | inactive
COc1cc(/C=N/N=C(N)N)ccc1OCc1ccc(Cl)cc1 | inactive

Compound | activity change, negative = inhibition
COc1ccccc1Nc1c2c(nc3ccc(N)cc13)CCCC2 | inactive
CCOC(=O)/C(C#N)=C/c1c(N2CCN(Cc3ccc4c(c3)OCO4)CC2)nc2c(C)cccn2c1=O | inactive
O=C(NCCc1cccc(F)c1)C1CCCN(c2nc3ccccc3s2)C1 (centres undefined) | inactive
Cn1ccc2c(N3CCCCC3)cc3c(c21)C1CCC3C1 (centres undefined) | inactive
CC#C[C@]1(O)CC[C@H]2[C@@H]3CCC4=CC(=O)CCC4=C3[C@@H](c3ccc(N(C)C)cc3)C[C@@]21C | inactive
O=C(NN1C(=O)/C(=C/c2ccc(O)c(O)c2)SC1=S)c1ccccc1 | inactive
CCOc1ccc(NC(=S)N(CCN2CCOCC2)Cc2ccc3c(c2)CCCN3CC)cc1 | inactive
CCOc1cc(CNc2cccc3[nH]c(C)nc23)ccc1OC | inactive
Cc1cc2c(cc1C)N[C@]1(C[C@H]3CCCC(=O)N4CC[C@@H](C1)[C@@H]34)C(=NC(C)(C)CC(C)(C)C)N2 | inactive
CC1C/C(=C/c2cccs2)C(=O)/C(=C/c2cccs2)C1 (centres undefined) | inactive
CN(C)c1ccc(NC(=O)Cn2cc3c(n2)CCCC3)cc1 | inactive
Cc1ccc(NC(=S)N/N=C/c2ccc([N+](=O)[O-])s2)cc1 | inactive
Cc1cccc(-c2ccc3[nH]c4c(c3c2)CCN2C[C@H]3[C@H](C)ON(C)[C@H]3C[C@@H]42)c1 | inactive
NC(=O)C1CCN(C2=C(NS(=O)(=O)c3ccc(Br)cc3)C(=O)c3ccccc3C2=O)CC1 | inactive
CN(C)CCNc1nc2sc3c(c2c(=O)n1CCc1ccccc1)CCCCC3 | inactive
COc1ccc(/C=N/N2CCN(c3ccccc3OC)CC2)cc1Br | inactive
Cc1ccsc1/C=N/N1CCN(Cc2ccccc2)CC1 | inactive
CCOC(=O)C1CCN(C2=C(NS(=O)(=O)c3ccc(Cl)cc3)C(=O)c3ccccc3C2=O)CC1 | inactive
c1cc2c3c(cccc3c1)NC(c1ccc3c(c1)OCO3)N2 | inactive
COc1ccccc1NC(c1cccnc1)c1ccc2cccnc2c1O (centres undefined) | inactive
COc1cccc(-c2sc3ccccc3c2-c2ccc(OCCN(C)C)cc2)c1 | inactive
CN(C)c1ccnc2c[cH-]cc12.[Fe].c1ccc(-[c-]2[c-](-c3ccccc3)[c-](-c3ccccc3)[c-](-c3ccccc3)[c-]2-c2ccccc2)cc1 (centres undefined) | inactive
CCOc1ccc(Nc2ccc([N+](=O)[O-])c3nonc23)cc1 | inactive
Cc1oc(-c2cccc3ccccc23)nc1CN1CCN(c2ncnc3ccccc23)CC1 | inactive
